Among the data in PubChem BioAssay AID258 (DTP/NCI, 2004) are T/C values, retold here.

In this test the test system is CD2F1 mice, L1210 leukemia sc, survival T/C. The test is described as follows: NCI In Vivo Anticancer Drug Screen. Data for tumor model L1210 Leukemia (subcutaneous) in CD2F1 (CDF1) mice. The conditions noted are these: endpoint: median survival time, higher = longer survival. In outline: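 Transplantable tumor-bearing mice were treated with compound; survival or tumor size measured and expressed as treated-group value (T) divided by vehicle-treated control value (C).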

Where “and” joins values, the source holds several entries; their conditions need not be identical. Identical values can stand only once. Inconclusive results and toxic doses are left out.

For the compound `CCOC(C)C(/C=N/NC(N)=S)=NNC(N)=S` (stereo not drawn), the T/C (dose: 65.0 mg/kg/injection, schedule: Q01DX Z (sc), vehicle: carboxymethylcellulose (CMC)) was 110 % of control; the T/C (dose: 108.0 mg/kg/injection, schedule: Q01DX Z (sc), vehicle: carboxymethylcellulose (CMC)) is 110 % of control; the T/C (dose: 180.0 mg/kg/injection, schedule: Q01DX Z (sc), vehicle: carboxymethylcellulose (CMC)) is 120 % of control; the T/C (dose: 300.0 mg/kg/injection, schedule: Q01DX Z (sc), vehicle: carboxymethylcellulose (CMC)) was 110 % of control.

As to `N#CC(c1ccccc1)c1cccc2ccccc12` (stereo not drawn), the T/C (dose: 23.0 mg/kg/injection, schedule: Q01DX Z (sc), vehicle: methylcellulose (MC)) is 109 % of control; the T/C (dose: 39.0 mg/kg/injection, schedule: Q01DX Z (sc), vehicle: methylcellulose (MC)) was 119 % of control; the T/C (dose: 65.0 mg/kg/injection, schedule: Q01DX Z (sc), vehicle: methylcellulose (MC)) was 152 % of control.

Take `Nc1nc2ncn(O)c2c(=O)[nH]1`: the T/C was 278 % of control (dose: 4.5 mg/kg/injection, schedule: Q01DX009 (ip), vehicle: other); 164 % of control (dose: 7.5 mg/kg/injection, schedule: Q01DX009 (ip), vehicle: other); 268 % of control (dose: 12.5 mg/kg/injection, schedule: Q01DX009 (ip), vehicle: other); 113 % of control (dose: 20.83 mg/kg/injection, schedule: Q01DX009 (ip), vehicle: other).

In the case of `CC/C(=C(/CC)c1ccc(O)cc1)c1ccc(O)cc1`, the T/C runs as follows: (dose: 12.5 mg/kg/injection, schedule: Q01DX009 (ip), vehicle: saline with Tween-80) 103 % of control; (dose: 12.5 mg/kg/injection, schedule: Q01DX009 (sc), vehicle: saline with Tween-80) 98 % of control; (dose: 25.0 mg/kg/injection, schedule: Q01DX009 (ip), vehicle: saline with Tween-80) 104 % of control; (dose: 25.0 mg/kg/injection, schedule: Q01DX009 (sc), vehicle: saline with Tween-80) 98 % of control and 100 % of control; (dose: 50.0 mg/kg/injection, schedule: Q01DX009 (ip), vehicle: saline with Tween-80) 100 % of control; (dose: 50.0 mg/kg/injection, schedule: Q01DX009 (sc), vehicle: saline with Tween-80) 102 % of control. Further, the T/C by setting is: (dose: 100.0 mg/kg/injection, schedule: Q01DX009 (ip), vehicle: saline with Tween-80) 97 % of control; (dose: 100.0 mg/kg/injection, schedule: Q01DX009 (sc), vehicle: saline with Tween-80) 96 % of control and 97 % of control; (dose: 200.0 mg/kg/injection, schedule: Q01DX009 (ip), vehicle: saline with Tween-80) 96 % of control; (dose: 200.0 mg/kg/injection, schedule: Q01DX009 (sc), vehicle: saline with Tween-80) 106 % of control; (dose: 400.0 mg/kg/injection, schedule: Q01DX009 (sc), vehicle: saline with Tween-80) 101 % of control.

On to `Nc1nc2c(c(=O)[nH]1)NC(CCNc1ccc(C(=O)NC(CCC(=O)O)C(=O)O)cc1)CN2` (stereo not drawn), for which the T/C (dose: 25.0 mg/kg/injection, schedule: Q03HX Z (ip), vehicle: other) was 120 % of control; the T/C (dose: 50.0 mg/kg/injection, schedule: Q03HX Z (ip), vehicle: other) is 120 % of control; the T/C (dose: 100.0 mg/kg/injection, schedule: Q01DX Z (ip), vehicle: other) is 120 % of control; the T/C (dose: 100.0 mg/kg/injection, schedule: Q04DX Z (ip), vehicle: other) was 100 % of control; the T/C (dose: 200.0 mg/kg/injection, schedule: Q04DX Z (ip), vehicle: other) was 100 % of control; the T/C (dose: 800.0 mg/kg/injection, schedule: Q01DX Z (ip), vehicle: other) was 100 % of control.
